Source: patent US20230278972A1, “SUBSTITUTED HALOALKYL SULFONANILIDE HERBICIDES” (FMC Corporation, priority 2020, published 2023)

Experiments:
Type in all cases: in vivo
[1] = tested on: Ryegrass, Italian (Italian ryegrass, Lolium multiflorum); assay: Test A preemergence, Ryegrass, Italian; conditions: Preemergence; for Plant response rating, Ryegrass, Italian: 0 to 100 scale (0 no effect, 100 complete control); for Ryegrass, Italian plant response rating: visual injury on 0 to 100 scale (0 no effect, 100 complete control), approximately 10 days
Summary of the method: (§1)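 Whole-plant herbicidal screen in pots of loam blended with sand. Sprays used a surfactant-containing, non-phytotoxic solvent vehicle. Timing was preemergence soil-directed at planting or postemergence at the one- to two-leaf stage (2–10 cm).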

[2] = tested on: Ryegrass, Italian (Italian ryegrass, Lolium multiflorum); assay: Test A postemergence, Ryegrass, Italian; conditions: Postemergence, 0 to 100 scale (0 no effect, 100 complete control); for Plant response rating, Ryegrass, Italian: 125 g ai/ha; for Ryegrass, Italian plant response rating: 500 g ai/ha, visual injury vs untreated controls after approx. 10 days
Summary of the method: as §1

[3] = tested on: barnyardgrass (Echinochloa crus-galli); assay: Test A postemergence, barnyardgrass; conditions: Postemergence, 0 to 100 scale (0 no effect, 100 complete control); for Plant response rating, Barnyardgrass: 125 g ai/ha; for Barnyardgrass plant response rating: 500 g ai/ha, visual injury vs untreated controls after approx. 10 days
Summary of the method: (§2)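 Preemergence: seeded pots of loam plus sand received a directed soil spray. Postemergence: seedlings at one to two leaves, 2 to 10 cm high, were oversprayed. Each compound was formulated in a non-phytotoxic solvent mix that included a surfactant.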

[4] = tested on: ragweed (common ragweed, Ambrosia artemisiifolia); assay: Test A preemergence, ragweed; conditions: Preemergence; for Plant response rating, Ragweed: 0 to 100 scale (0 no effect, 100 complete control); for Ragweed plant response rating: visual injury on 0 to 100 scale (0 no effect, 100 complete control), approximately 10 days
Summary of the method: as §1

[5] = tested on: Foxtail, Giant (giant foxtail, Setaria faberi); assay: Test A preemergence, Foxtail, Giant; conditions: Preemergence; for Plant response rating, Foxtail, Giant: 0 to 100 scale (0 no effect, 100 complete control); for Foxtail, Giant plant response rating: visual injury on 0 to 100 scale (0 no effect, 100 complete control), approximately 10 days
Summary of the method: as §1

kochia (Bassia scoparia) [6] = assay: Test A postemergence, kochia; conditions: Postemergence, 0 to 100 scale (0 no effect, 100 complete control); for Plant response rating, Kochia: 125 g ai/ha; for Kochia plant response rating: 500 g ai/ha, visual injury vs untreated controls after approx. 10 days
Summary of the method: as §1

[7] = tested on: pigweed (Amaranthus retroflexus); assay: Test A preemergence, pigweed; conditions: for Plant response rating, Pigweed: 0 to 100 scale (0 no effect, 100 complete control); for Pigweed plant response rating: visual injury on 0 to 100 scale (0 no effect, 100 complete control), approximately 10 days
Summary of the method: as §2

[8] = tested on: pigweed (Amaranthus retroflexus); assay: Test A postemergence, pigweed; conditions: Postemergence, 0 to 100 scale (0 no effect, 100 complete control); for Plant response rating, Pigweed: 125 g ai/ha; for Pigweed plant response rating: 500 g ai/ha, visual injury vs untreated controls after approx. 10 days
Summary of the method: as §1

kochia (Bassia scoparia) [9] = assay: Test A preemergence, kochia; conditions: Preemergence; for Plant response rating, Kochia: 0 to 100 scale (0 no effect, 100 complete control); for Kochia plant response rating: visual injury on 0 to 100 scale (0 no effect, 100 complete control), approximately 10 days
Summary of the method: as §1

[10] = tested on: ragweed (common ragweed, Ambrosia artemisiifolia); assay: Test A postemergence, ragweed; conditions: Postemergence, 0 to 100 scale (0 no effect, 100 complete control); for Plant response rating, Ragweed: 125 g ai/ha; for Ragweed plant response rating: 500 g ai/ha, visual injury vs untreated controls after approx. 10 days
Summary of the method: as §1

[11] = tested on: wheat (Triticum aestivum); assay: Test A postemergence, wheat; conditions: Postemergence, 0 to 100 scale (0 no effect, 100 complete control); for Plant response rating, Wheat: 125 g ai/ha; for Wheat plant response rating: 500 g ai/ha, visual injury vs untreated controls after approx. 10 days
Summary of the method: as §2

[12] = tested on: blackgrass (Alopecurus myosuroides); assay: Test A postemergence, blackgrass; conditions: Postemergence, 0 to 100 scale (0 no effect, 100 complete control); for Plant response rating, Blackgrass: 125 g ai/ha; for Blackgrass plant response rating: 500 g ai/ha, visual injury vs untreated controls after approx. 10 days
Summary of the method: as §1

[13] = tested on: barnyardgrass (Echinochloa crus-galli); assay: Test A preemergence, barnyardgrass; conditions: Preemergence, 0 to 100 scale (0 no effect, 100 complete control)
Summary of the method: as §1

[14] = tested on: Foxtail, Giant (giant foxtail, Setaria faberi); assay: Test A postemergence, Foxtail, Giant; conditions: Postemergence, 0 to 100 scale (0 no effect, 100 complete control); for Plant response rating, Foxtail, Giant: 125 g ai/ha; for Foxtail, Giant plant response rating: 500 g ai/ha, visual injury vs untreated controls after approx. 10 days
Summary of the method: as §1

[15] = tested on: galium (catchweed bedstraw, Galium aparine); assay: Test A postemergence, galium; conditions: Postemergence, 0 to 100 scale (0 no effect, 100 complete control); for Plant response rating, Galium: 125 g ai/ha; for Galium plant response rating: 500 g ai/ha, visual injury vs untreated controls after approx. 10 days
Summary of the method: as §2

corn (Zea mays) = assay: Test A postemergence, corn; conditions: Postemergence, 0 to 100 scale (0 no effect, 100 complete control); for Plant response rating, Corn: 125 g ai/ha; for Corn plant response rating: 500 g ai/ha, visual injury vs untreated controls after approx. 10 days
Summary of the method: as §1

[16] = 125 g ai/ha, visual injury, approx. 10 days

SMILES | Plant response rating, Ryegrass, Italian [1, 16] | Plant response rating, Ryegrass, Italian [2] | Ryegrass, Italian plant response rating [2] | Plant response rating, Barnyardgrass [3] | Barnyardgrass plant response rating [3] | Plant response rating, Ragweed [4, 16] | Plant response rating, Foxtail, Giant [5, 16] | Plant response rating, Kochia (kochia (Bassia scoparia) [6]) | Kochia plant response rating (kochia (Bassia scoparia) [6]) | Plant response rating, Pigweed [7, 16] | Plant response rating, Pigweed [8] | Pigweed plant response rating [8] | Plant response rating, Kochia (kochia (Bassia scoparia) [9]; [16]) | Plant response rating, Ragweed [10] | Ragweed plant response rating [10] | Plant response rating, Wheat [11] | Wheat plant response rating [11] | Plant response rating, Blackgrass [12] | Blackgrass plant response rating [12] | Plant response rating, Barnyardgrass ([13]; 500 g ai/ha) | also measured
CC(=O)N(c1cc(C2=NOC3(CCCC3)C2)c(C)cc1C)S(=O)(=O)C(F)(F)F [Compound 220] | 100 | 0 | 20 | 20 | 70 | 30 | 100 | 20 | 60 | 70 | 0 | 70 | 20 | 0 | 40 | 20 | 60 | 0 | 30 | 100 | Plant response rating, Ryegrass, Italian ([1]; 500 g ai/ha): 100; Plant response rating, Ragweed ([4]; 500 g ai/ha): 60; Plant response rating, Foxtail, Giant ([5]; 500 g ai/ha): 100; Plant response rating, Pigweed ([7]; 500 g ai/ha): 100; Plant response rating, Kochia (kochia (Bassia scoparia) [9]; 500 g ai/ha): 70; Plant response rating, Barnyardgrass [13, 16]: 100; Plant response rating, Foxtail, Giant [14]: 0; Foxtail, Giant plant response rating [14]: 50; Plant response rating, Galium [15]: 60; Galium plant response rating [15]: 80; Plant response rating, Corn (corn (Zea mays)): 0; Corn plant response rating (corn (Zea mays)): 30
Cc1cc(Cl)c(NS(=O)(=O)C(F)(F)F)cc1C1=NOC2(CCCCC2)C1 [Compound 221] | 100 | 0 | 60 | 30 | 80 | 90 | 100 | 60 | 70 | 60 | 20 | 80 | 70 | 70 | 90 | 20 | 70 | 10 | 30 | 100 | Plant response rating, Ryegrass, Italian ([1]; 500 g ai/ha): 100; Plant response rating, Ragweed ([4]; 500 g ai/ha): 90; Plant response rating, Foxtail, Giant ([5]; 500 g ai/ha): 100; Plant response rating, Pigweed ([7]; 500 g ai/ha): 100; Plant response rating, Kochia (kochia (Bassia scoparia) [9]; 500 g ai/ha): 90; Plant response rating, Barnyardgrass [13, 16]: 100; Plant response rating, Foxtail, Giant [14]: 0; Foxtail, Giant plant response rating [14]: 90; Plant response rating, Galium [15]: 80; Galium plant response rating [15]: 100; Plant response rating, Corn (corn (Zea mays)): 10; Corn plant response rating (corn (Zea mays)): 40
Cc1cc(Cl)c(N(S(=O)(=O)C(F)(F)F)S(=O)(=O)C(F)(F)F)cc1C1=NOC(C)(C)C1 [Compound 222] | 30 | 0 | 0 | 10 | 70 | 60 | 40 | 10 | 50 | 50 | 20 | 40 | 0 | 50 | 90 | 0 | 70 | 20 | 20 | 90 | Plant response rating, Ryegrass, Italian ([1]; 500 g ai/ha): 80; Plant response rating, Ragweed ([4]; 500 g ai/ha): 90; Plant response rating, Foxtail, Giant ([5]; 500 g ai/ha): 50; Plant response rating, Pigweed ([7]; 500 g ai/ha): 100; Plant response rating, Kochia (kochia (Bassia scoparia) [9]; 500 g ai/ha): 40; Plant response rating, Foxtail, Giant [14]: 0; Foxtail, Giant plant response rating [14]: 10; Plant response rating, Galium [15]: 90; Galium plant response rating [15]: 90; Plant response rating, Corn (corn (Zea mays)): 0; Corn plant response rating (corn (Zea mays)): 0
Cc1cc(C)c(C(=O)N2CCC3(CCCC3)CC2)cc1NS(=O)(=O)C(F)(F)F [Compound 223] | 30 | 0 | 0 | 10 | 20 | 0 | 60 | 0 | 0 | 10 | 40 | 30 | 0 | 0 | 20 | 0 | 0 | 20 | 0 | 50 | Plant response rating, Ryegrass, Italian ([1]; 500 g ai/ha): 80; Plant response rating, Ragweed ([4]; 500 g ai/ha): 50; Plant response rating, Foxtail, Giant ([5]; 500 g ai/ha): 100; Plant response rating, Pigweed ([7]; 500 g ai/ha): 90; Plant response rating, Kochia (kochia (Bassia scoparia) [9]; 500 g ai/ha): 20; Plant response rating, Barnyardgrass [13, 16]: 30; Plant response rating, Foxtail, Giant [14]: 0; Foxtail, Giant plant response rating [14]: 0; Plant response rating, Galium [15]: 40; Galium plant response rating [15]: 40; Plant response rating, Corn (corn (Zea mays)): 0; Corn plant response rating (corn (Zea mays)): 0
Cc1cc(C)c(C(=O)N2CCC3(CCCC3)C2)cc1NS(=O)(=O)C(F)(F)F [Compound 225] | 70 | 60 | 40 | 0 | 10 | 30 | 90 | 0 | 10 | 70 | 90 | 30 | 0 | 20 | 40 | 0 | 0 | 0 | 20 | 90 | Plant response rating, Ryegrass, Italian ([1]; 500 g ai/ha): 100; Plant response rating, Ragweed ([4]; 500 g ai/ha): 90; Plant response rating, Foxtail, Giant ([5]; 500 g ai/ha): 100; Plant response rating, Pigweed ([7]; 500 g ai/ha): 100; Plant response rating, Kochia (kochia (Bassia scoparia) [9]; 500 g ai/ha): 40; Plant response rating, Barnyardgrass [13, 16]: 70; Plant response rating, Foxtail, Giant [14]: 0; Foxtail, Giant plant response rating [14]: 0; Plant response rating, Galium [15]: 50; Galium plant response rating [15]: 80; Plant response rating, Corn (corn (Zea mays)): 0; Corn plant response rating (corn (Zea mays)): 0
Cc1cc(C)c(C(=O)N2CCC(S(C)(=O)=O)CC2)cc1NS(=O)(=O)C(F)(F)F [Compound 233] | 20 | 0 | 0 | 0 | 0 | 0 | 40 | 0 | 30 | 60 | 30 | 60 | 0 | 0 | 0 | 0 | 40 | 0 | 40 | 30 | Ryegrass, Italian plant response rating ([1]; 500 g ai/ha): 70; Ragweed plant response rating ([4]; 500 g ai/ha): 30; Foxtail, Giant plant response rating ([5]; 500 g ai/ha): 100; Pigweed plant response rating ([7]; 500 g ai/ha): 90; Kochia plant response rating (kochia (Bassia scoparia) [9]; 500 g ai/ha): 80; Plant response rating, Barnyardgrass [13, 16]: 0; Plant response rating, Foxtail, Giant [14]: 0; Foxtail, Giant plant response rating [14]: 0; Plant response rating, Galium [15]: 80; Galium plant response rating [15]: 90; Plant response rating, Corn (corn (Zea mays)): 0; Corn plant response rating (corn (Zea mays)): 0
Cc1cc(C)c(C(=O)N2CCC(CC(F)(F)F)CC2)cc1NS(=O)(=O)C(F)(F)F [Compound 234] | 20 | 0 | 0 | 60 | 70 | 80 | 50 | 0 | 0 | 50 | 30 | 60 | 0 | 30 | 50 | 0 | 0 | 0 | 0 | 80 | Ryegrass, Italian plant response rating ([1]; 500 g ai/ha): 50; Ragweed plant response rating ([4]; 500 g ai/ha): 90; Foxtail, Giant plant response rating ([5]; 500 g ai/ha): 50; Pigweed plant response rating ([7]; 500 g ai/ha): 100; Kochia plant response rating (kochia (Bassia scoparia) [9]; 500 g ai/ha): 30; Plant response rating, Barnyardgrass [13, 16]: 80; Plant response rating, Foxtail, Giant [14]: 0; Foxtail, Giant plant response rating [14]: 50; Plant response rating, Galium [15]: 10; Galium plant response rating [15]: 80; Plant response rating, Corn (corn (Zea mays)): 0; Corn plant response rating (corn (Zea mays)): 0
